{
  "source": "patent US11331294B2",
  "about": "“Benzoquinone derivative E3330 in combination with chemotherapeutic agents for the treatment of bladder cancer” (Indiana University Research and Technology Corporation, priority 2007, dated 2022)",
  "key": {"NFκB": {"test_system": "NFκB", "assay": "NFκB-driven luciferase reporter", "assay_type": "cell-based, human", "settings": "T24 and UC3 cells, IC50 concentration, 24 h", "experimental": "(§1) FIGS. 36A-36H. […] In cytokine-induced T24 and UC3 cells NFκB-driven luciferase (FIG. 36A), STAT3-driven luciferase (FIG. 36B), and AP-1-driven luciferase (FIG. 36C) were quantified and normalized via Renilla following treatment with the corresponding cell growth-inhibitory IC50 concentrations. T24 cells were treated with APX2009 (8.5 μM) and APX2014 (6.5 μM), and UC3 cells were treated with APX2009 (6.1 μM) and APX2014 (4.6 μM) for 24 h. (*-p<0.05 APX treated vs vehicle, n=4). […] In the panels of FIGS. 36F & 36G, co-expression of survivin and APE1/Ref-1 was analyzed in superficial (FIG. 36F) and invasive human bladder tumors (FIG. 36G) in patients, and found nearly universal overlap of positivity in both in human samples. This was also true in cisplatin-refractory patients from the tissue microarray specimens (FIG. 36H).\n(§2) The transcriptional activity of NFκB, STAT3, and AP-1 is under redox control by APE1/Ref-1. Therefore, NFκB, STAT3, or AP-1 transcriptional activity was quantified following treatment with APE1/Ref-1 redox inhibitors (FIGS. 36A-36C)."}, "UC3 and T24 cells": {"test_system": "UC3 and T24 cells", "assay": "Incucyte caspase-3/7 apoptosis assay", "assay_type": "cell-based, human", "settings": "red fluorescence over time", "experimental": "UC3 and T24 cells were plated in 96-well plates at 3,500 cell/well and allowed to attach overnight. Increasing amounts of APX2009 or APX2014 were added to each well along with 1 μM of the caspase reagent (Caspase-3/7 Red, Essen Bioscience) and then the cells were allowed to recover for 2 hours prior to beginning imaging with the Incucyte system (Essen Bioscience). Each well was imaged for phase contrast as well as red fluorescence every 2 hours for 96 hours. The Incucyte software generated movies of the cells following treatment as well as real-time imaging data with red fluorescence normalized to the percent confluency of the well.\nTo assay for caspase-3/7 mediated apoptosis, the increase in red fluorescence was analyzed over time following the addition of APX2009 and APX2014."}, "STAT3": {"test_system": "STAT3", "assay": "STAT3-driven luciferase reporter", "assay_type": "cell-based, human", "settings": "T24 and UC3 cells induced with IL-6, IC50 concentration, 24 h", "experimental": "as §1, §2"}, "survivin and Cyclin D1": {"test_system": "survivin and Cyclin D1", "assay": "Western blot of survival and proliferation proteins in cells", "assay_type": "cell-based, human", "settings": "immunoblot", "experimental": "as §1\nWhole cell extracts were prepared using RIPA (radioimmunoprecipitation) buffer containing protein inhibitors (1:100 PMSF, 1:100 orthovanadate and 1:100 protease inhibitor). Total protein concentration was determined via Lowry or BCA assay. 10-50 μg/well of each lysate was separated by SDS-PAGE using a 12% SDS-polyacrylamide gel. Blots were blocked with 5% nonfat dry milk in 1×TBS for 1 h and incubated overnight with primary antibodies to either APE1/Ref-1 (1:1000 dilution, Novus, NB-100-116), survivin (1:1000, Cell Signaling), Cyclin D1 (1:500, Abcam), PARP-1 (1:1000, Cell Signaling) or GAPDH (1:5000, Cell Signaling). After blots were washed three-six times with TBS-Tween, blots were incubated with HRP-conjugated secondary mouse antibodies (1:5000, Pierce). After washing three-six times with TBS-Tween, blots were visualized by enhanced chemiluminescence (West Pico/West Femto, Pierce).\nFor further confirmation of a decrease in NFκB and STAT3 transcriptional activity, levels of survivin and Cyclin D1 were examined Both survivin and Cyclin D1 are known to be downstream targets of NFκB and STAT3. […] However, unlike APE1/Ref-1, survivin expression was primarily nuclear in both urothelial confined and invasive lesions."}, "[1]": {"test_system": "RP-B-01, RP-B-02 and T24 cell lines", "assay": "Alamar blue combination study with cisplatin", "assay_type": "cell-based, human", "settings": "combined with increasing concentrations of cisplatin, 72 h", "experimental": "FIGS. 30A-30C. […] RP-B-01, RP-B-02, and T24 cell lines were treated with increasing concentrations of cisplatin in combination with a single dose of either APX2009 or APX2014 as indicated (n=3±SE). Cell proliferation was normalized to Saline control and expressed as Fold Change. Combination index (CI) values calculated with Compusyn for combination of APX inhibitors and cisplatin. CI values indicated mainly additivity (0.95-1.2) to synergy (0.8-0.94).\nBladder cancer cell lines (BLCAb001 (RP-B-01) and BLCAb002 (RP-B-02) maintained in RPMI growth medium with 10% FBS were plated at 4,000 cells/well in poly-D-lysine treated 96-well clear bottom black plates and grown overnight in 5% CO2 at 37° C. Cells in monolayer were then treated with increasing concentrations of redox-specific inhibitor APX3330, APX2014 or APX2009 and serially diluted 1:2 in a 5-point dose scheme. For combination studies, cells were treated with both cisplatin and APX compounds to determine efficacy. After 72 hours, fresh RPMI medium with 5% FBS was exchanged, and a fluorescent metabolic indicator, Alamar Blue was added to each well at 10% final concentration. After a 4 hour incubation, plates were read on a Synergy H4 (Bio-Tek) plate reader. […]\nAPE1/Ref-1 inhibition enhances cisplatin's therapeutic effect. […] Cell proliferation was assessed using Alamar blue 72 h after drug treatment."}, "bladder cancer cells": {"test_system": "bladder cancer cells", "assay": "BrdU incorporation assay in cultured cells", "assay_type": "cell-based", "settings": "IC50 concentration, 24 hours; control 11.2%±0.84", "experimental": "To determine the proliferation rate of cells in response to APE1/Ref-1 redox inhibitors, cells were grown in the culture conditions described above and treated with inhibitors as described above, in chamber slides. After 24 hours in culture with inhibitors or vehicle, all cells were treated with 3.1 μg/ml BrdU (in sterile PBS; 0.1%) for one hour. Cells were fixed and permeablized with 4% paraformaldehyde and stained for BrdU incorporation with the antibody and methodology described in the Roche BrdU labeling Kit, (Risch-Rotkreuz, Switzerland), using secondary antibodies. Positive cells were captured on a Leica 6000 fluorescent microscope and were quantified relative to Hoechst positive nuclei (total live cells).\nTo further characterize this effect, it was analyzed whether this reduced cell number was due to decreases in proliferation, increases in apoptosis, or both."}, "T24 cells": {"test_system": "T24 cells", "assay": "Methylene blue cell growth assay T24", "assay_type": "cell-based", "settings": "Homo sapiens, T-24, read-out: cell growth-inhibitory IC50", "experimental": "(§3) FIGS. 31A & 31B. Treatment with APE1/Ref-1 inhibitors potently blocks bladder cancer cell proliferation and activated Caspase 3/7. […] The IC50 values for FIG. 31A were determined using the methylene blue assay, n=4. […] T24 and UC3 cells were treated with APX2009 and APX2014 at the IC50 and IC90 and monitored over time for activation of capsase 3/7 by an increase in red fluorescence. Time course graphs are shown in FIG. 31B and representative images at 48 hr are shown in FIG. 32A (described more fully below), n=3-4.\nas §1, with “36H). […]” for “36H).”"}, "RP-B-02 spheroids": {"test_system": "RP-B-02 spheroids", "assay": "3D spheroid growth assay RP-B-02", "assay_type": "cell-based, human", "settings": "p<0.05", "text": "(§4) RP-B-01 and RP-B-02 cells were resuspended in normal growth media containing 3% Reduced Growth Factor Matrigel (BD Biosciences) at a cell density of 1,500 and 3,000 cells/well, respectively and plated in ultra-low adherence 96-well plates (Corning).\n(§5) Spheroids were allowed to form and then treated on days 4, 8, and 12 following plating with media containing 5% serum, 3% Reduced Growth Factor Matrigel, and APE1/Ref-1 inhibitors. Vehicle control, DMSO, was less than 0.01% of the volume, and was equivalent in each well. On Day 15, Alamar blue reagent (LifeTechnologies) was added to each well (10 μL/well) and incubated for 24 hours.\n(§6) In order to mimic tumor growth more accurately in a relevant microenvironment and in a more robust model for predicting response to treatment, a three-dimensional (3D) culture model of patient-derived RP-B-01 and RP-B-02 bladder cancer cells was used. Both RP-B-01 and RP-B-02 cell lines are transitional cell carcinoma staged as T4bN1Mx and T2bN0Mx Grade III tumors, respectively."}, "UC3 cells": {"test_system": "UC3 cells", "assay": "Methylene blue cell growth assay UC3", "assay_type": "cell-based", "settings": "Homo sapiens, read-out: cell growth-inhibitory IC50", "experimental": "as §3\nas §1, with “36H). […]” for “36H).”"}, "[2]": {"test_system": "SW780, T24, UC3 cell lines", "assay": "Methylene blue cell growth assay, bladder cancer cell panel", "assay_type": "cell-based, human", "experimental": "as §3\nBladder cancer cell proliferation was inhibited and apoptosis was induced by potent, selective redox inhibitors of APE1/Ref-1."}, "RP-B-01 spheroids": {"test_system": "RP-B-01 spheroids", "assay": "3D spheroid growth assay RP-B-01", "assay_type": "cell-based, human", "settings": "p<0.01", "text": "as §4, §5, §6"}, "RP-B-02 cells": {"test_system": "RP-B-02 cells", "assay": "Alamar blue monolayer assay RP-B-02", "assay_type": "cell-based, human", "settings": "72 h", "experimental": "(§7) Bladder cancer cell lines (BLCAb001 (RP-B-01) and BLCAb002 (RP-B-02) maintained in RPMI growth medium with 10% FBS were plated at 4,000 cells/well in poly-D-lysine treated 96-well clear bottom black plates and grown overnight in 5% CO2 at 37° C. Cells in monolayer were then treated with increasing concentrations of redox-specific inhibitor APX3330, APX2014 or APX2009 and serially diluted 1:2 in a 5-point dose scheme. For combination studies, cells were treated with both cisplatin and APX compounds to determine efficacy. After 72 hours, fresh RPMI medium with 5% FBS was exchanged, and a fluorescent metabolic indicator, Alamar Blue was added to each well at 10% final concentration. After a 4 hour incubation, plates were read on a Synergy H4 (Bio-Tek) plate reader. For each drug dose, background was subtracted and then further normalized to media alone.\n(§8) APE1/Ref-1 inhibition enhances cisplatin's therapeutic effect. Cisplatin is the standard of care for bladder cancer, but many patients' tumors are refractory to this therapy. […] To determine this, PDX lines, RP-B-01 and RP-B-02, as well as established cell line, T24, were treated with increasing concentrations of cisplatin in combination with APX compounds (FIGS. 30A-30C). Cell proliferation was assessed using Alamar blue 72 h after drug treatment."}, "RP-B-01 cells": {"test_system": "RP-B-01 cells", "assay": "Alamar blue monolayer assay RP-B-01", "assay_type": "cell-based, human", "experimental": "as §7, §8"}, "[3]": {"test_system": "subretinal neovascularization (SNV) in vldlr-/- retina", "assay": "SNV in vldlr-/- knockout mice assay", "assay_type": "in vivo", "settings": "antibody injection", "experimental": "SNV in vldlr−/− knockout mice assay. […] Experiments were carried out in very-low-density lipoprotein receptor (vldr) knockout mice to determine the effect of APX3330 on inhibition of SNV development in the vldlr−/− mutant. Each animal received a single intravitreal injection of 1 μl volume of BSS as a vehicle control and the fellow eye received 1 μl of […] APX3330. The final concentration of APX3330 was equivalent to approximately 20 μM in the retina. Quantitative measurement of SNV was carried out one week after the treatment in the whole mount retina after lectin-FITC staining. […] The apparent increase of SNV after antibody injection could be due to foreign protein triggered immune response which has been reported before (Tator et al., 2008). APX3330 reduced the number of SNV at a statistically significant level (p<0.01 in paired t-test). […] The Ape1/Ref-1 inhibitor offers a new approach to control angiogenesis for advanced macular degeneration (AMD) treatment."}, "endothelial cells": {"test_system": "endothelial cells", "assay": "In vitro tube formation assay", "assay_type": "cell-based", "settings": "dose dependent", "text": "In vitro tube formation assay."}},
  "data": [
    {"molecule": "CCC/C(=C\\C1=C(OC)C(=O)c2ccccc2C1=O)C(=O)NOC", "note": "[APX2014]", "values": [
      {"measurement": "NFκB transcriptional activity", "setting": "NFκB", "value": "reduced the transcriptional activity of NFκB and STAT3"},
      {"measurement": "caspase-3/7 activation", "setting": "UC3 and T24 cells", "value": "dose-dependent increase in caspase activation"},
      {"measurement": "STAT3 transcriptional activity", "setting": "STAT3", "value": "reduced the transcriptional activity of NFκB and STAT3"},
      {"measurement": "expression of c-Myc, Bcl-2, Bcl-XL", "setting": "survivin and Cyclin D1", "value": "No change in expression"},
      {"measurement": "expression of survivin and Cyclin D1", "setting": "survivin and Cyclin D1", "value": "significantly down-regulated"},
      {"measurement": "cellular proliferation when combined with cisplatin", "setting": "[1]", "value": "further reduction in cellular proliferation"},
      {"measurement": "BrdU-positive cells", "setting": "bladder cancer cells", "value": "7.2%±0.49"},
      {"measurement": "IC50", "setting": "T24 cells", "value": 6.5, "unit": "µM"},
      {"measurement": "potency in RP-B-02 cells in 3D culture relative to APX3330", "setting": "RP-B-02 spheroids", "value": "more potent in the RP-B-02 cells than parent compound APX3330"},
      {"measurement": "IC50", "setting": "UC3 cells", "value": 4.6, "unit": "µM"},
      {"measurement": "fold lower IC50 than APX3330", "setting": "[2]", "value": 11, "unit": "fold"},
      {"measurement": "relative sensitivity of RP-B-01 cells in 3D culture", "setting": "RP-B-01 spheroids", "value": "significantly more sensitive to APX2014 than APX2009"}
    ]},
    {"molecule": "N.N.[Cl][Pt][Cl]", "note": "[cisplatin]", "values": [
      {"measurement": "IC50", "setting": "RP-B-02 cells", "value": 0.5, "unit": "µM"},
      {"measurement": "resistance of RP-B-01 relative to RP-B-02 cells", "setting": "RP-B-01 cells", "value": "at least 3 fold"},
      {"measurement": "IC50", "setting": "RP-B-01 cells; RP-B-01 cells, 72 h", "value": 1.44, "unit": "µM"}
    ]},
    {"molecule": "AVASTIN®: VEGF antibody [reference compound]", "values": [
      {"measurement": "inhibition to the number of SNV", "setting": "[3]", "value": "neither AVASTIN® (VEGF antibody) nor bFGF antibody treatment showed any sign of inhibition"},
      {"measurement": "formation of blood-vessel-like tubules", "setting": "endothelial cells", "value": "prevented formation of blood-vessel-like tubules"}
    ]}
  ]
}
